Molecular target: human factor IXa (Homo sapiens (Human), UniProt P00740)
Assay: biochemical
Conditions: read-out: Imax IXa (percentage inhibition at the maximum concentration tested)

Chain of human factor IXa (P00740 whole entry, looked up): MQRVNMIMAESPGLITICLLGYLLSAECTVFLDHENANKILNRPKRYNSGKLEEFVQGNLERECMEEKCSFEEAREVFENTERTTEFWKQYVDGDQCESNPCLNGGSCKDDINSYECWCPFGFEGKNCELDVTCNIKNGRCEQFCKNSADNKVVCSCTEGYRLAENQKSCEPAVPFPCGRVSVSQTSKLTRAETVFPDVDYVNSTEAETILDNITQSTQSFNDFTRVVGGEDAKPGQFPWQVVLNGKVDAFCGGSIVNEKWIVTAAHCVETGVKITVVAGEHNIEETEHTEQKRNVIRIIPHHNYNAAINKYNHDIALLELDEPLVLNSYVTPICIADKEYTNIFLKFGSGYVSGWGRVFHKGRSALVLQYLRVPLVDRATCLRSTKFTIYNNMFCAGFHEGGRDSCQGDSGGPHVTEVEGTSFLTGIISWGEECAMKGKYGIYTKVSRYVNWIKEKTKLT
Chain of human factor IXa (P00740 whole entry partner, looked up): as the sequence (P00740 whole entry, looked up) above

SMILES: COC(=O)[C@@H](Cc1cc2ccnc(N)c2cc1C(F)(F)F)N1CC[C@H](NS(=O)(=O)c2cnc(N3CCC(F)(F)C3)s2)C1=O [Compound 90, (R)-3-(1-Amino-7-trifluoromethyl-isoquinolin-6-yl)-2-{(S)-3-[2-(3,3-difluoro-pyrrolidin-1-yl)-thiazole-5-sulfonylamino]-2-oxo-pyrrolidin-1-yl}-propionic acid methyl ester]
- inhibition at 5 µM: 41%

— patent US9150544B2 (priority 2011, dated 2015)
